The values below are quoted from earlier work in patent publication US6057161A (priority 1997, dated 2000).

Read-outs that look alike come from different tables or passages of the source.

`CN1[C@H]2CC[C@@H]1[C@@H](C(=O)O)[C@@H](OC(=O)c1ccccc1)C2` [Benzoylecgonine]: the “metabolism, accumulation or excretion (in words)” value (“metabolism … (in words)” below) (body) is “can be detected in the urine for a longer period of time than ecgonine methyl ester”. On to `COC(=O)[C@H]1[C@@H](OC(=O)c2ccccc2)C[C@@H]2CC[C@H]1N2C` [Cocaine], for which, for the setting “in vivo”, the “metabolism … (in words)” value is on record as “rapidly metabolized in the body”. As to `CN1CC[C@]23c4c5ccc(O[C@@H]6O[C@H](C(=O)O)[C@@H](O)[C@H](O)[C@H]6O)c4O[C@H]2[C@@H](O)C=C[C@H]3[C@H]1C5` [Morphine-3-glucoronide, morphine-3-glucuronide], the “time found in the urine after administration of heroin” value (in vivo) is listed as “up to 40 hours”. Regarding `CN1CC[C@]23c4c5ccc(O)c4O[C@H]2[C@@H](O)C=C[C@H]3[C@H]1C5` [Morphine], the “time found in the urine after administration of heroin” value (in vivo) is recorded as “up to 40 hours”. For the compound `CCCCCc1cc(O)c2c(c1)OC(C)(C)[C@@H]1CCC(C(=O)O)=C[C@@H]21` [THC-COOH], the “metabolism … (in words)” value (body) is on record as “excreted in the urine as a glucuronic acid conjugate at detectable levels”.
